Measured values: patent publication US8580811B2 (Ligand Pharmaceuticals Incorporated, priority 2005, dated 2013)

What follows are molecules tested against T1, human AR (Homo sapiens, UniProt P10275) (assay: IR Binding Assay: whole cell competitive binding of test compounds against 3H-DHT in COS-1 cells transfected with pRShAR).
T1 construct: expressed in transfected cells; host or cells: COS-1 cells
T1 sequence (P10275 1-920): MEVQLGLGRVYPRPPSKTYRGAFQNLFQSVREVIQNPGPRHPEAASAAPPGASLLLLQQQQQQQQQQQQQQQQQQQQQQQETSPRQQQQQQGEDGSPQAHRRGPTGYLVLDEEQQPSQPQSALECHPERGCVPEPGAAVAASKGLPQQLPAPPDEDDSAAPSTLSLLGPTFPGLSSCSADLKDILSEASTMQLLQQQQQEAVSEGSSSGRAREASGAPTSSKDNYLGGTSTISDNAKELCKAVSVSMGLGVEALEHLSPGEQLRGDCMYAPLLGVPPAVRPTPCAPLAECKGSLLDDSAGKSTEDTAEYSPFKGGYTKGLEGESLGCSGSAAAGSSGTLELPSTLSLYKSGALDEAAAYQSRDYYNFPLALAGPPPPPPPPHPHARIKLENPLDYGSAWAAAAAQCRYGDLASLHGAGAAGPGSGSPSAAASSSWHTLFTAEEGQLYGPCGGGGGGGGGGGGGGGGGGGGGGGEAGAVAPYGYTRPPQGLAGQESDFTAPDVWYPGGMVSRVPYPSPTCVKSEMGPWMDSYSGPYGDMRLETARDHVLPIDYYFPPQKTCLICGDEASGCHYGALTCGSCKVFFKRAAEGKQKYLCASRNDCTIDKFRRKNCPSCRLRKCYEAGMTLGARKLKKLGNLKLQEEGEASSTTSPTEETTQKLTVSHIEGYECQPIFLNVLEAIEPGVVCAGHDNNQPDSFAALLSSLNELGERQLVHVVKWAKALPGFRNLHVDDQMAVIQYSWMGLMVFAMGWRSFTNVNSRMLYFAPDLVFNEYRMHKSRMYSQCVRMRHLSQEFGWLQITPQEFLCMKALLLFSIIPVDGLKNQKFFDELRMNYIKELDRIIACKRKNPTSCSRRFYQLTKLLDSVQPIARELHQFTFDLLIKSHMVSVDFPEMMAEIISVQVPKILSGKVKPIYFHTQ
Experimental: For the whole cell binding assay, COS-1 cells in 96-well microtiter plates including DMEM-10% FBS were transfected as described above with the following plasmid DNA: pRShAR (2 ng/well), pRS-β-Gal (50 ng/well) and pGEM (48 ng/well). Six hours after transfection, media was removed, the cells were washed with PBS and fresh media was added. The next day, the media was changed to DMEM-serum free to remove any endogenous ligand that might be complexed with the receptor in the cells.
After 24 hours in serum-free media, either a saturation analysis to determine the Kd for tritiated dihydrotestosterone (^3H-DHT) on human AR or a competitive binding assay to evaluate the ability of test compounds to compete with ^3H-DHT for AR was performed. […] For the competitive binding assay, media including 1 nM ^3H-DHT and test compounds in concentrations ranging from 10^−10 to 10^−6 M were added to the cells. Three replicates were used for each sample. After three hours at 37° C., an aliquot of the total binding media at each concentration of ^3H-DHT was removed to estimate the amount of free ^3H-DHT. The remaining media was removed, the cells were washed three times with PBS to remove unbound ligand, and cells were lysed with a Triton X-100-based buffer. The lysates were assayed for amount of bound ^3H-DHT and β-Gal activity using a scintillation counter or spectrophotometer, respectively.
For the saturation analyses, the difference between the total binding and the nonspecific binding, normalized by the β-Gal rate, was defined as specific binding. The specific binding was evaluated by Scatchard analysis to determine the Kd for ^3H-DHT. See e.g., D. Rodbard, “Mathematics and statistics of ligand assays: an illustrated guide” In: J. Langon and J. J. Clapp, eds., Ligand Assay, Masson Publishing U.S.A., Inc., New York, pp. 45-99, (1981), the disclosure of which is herein incorporated by reference. For the competition studies, the data was plotted as the amount of ^3H-DHT (% of control in the absence of test compound) remaining over the range of the dose-response curve for a given compound. […] The Ki values were determined by application of the Cheng-Prusoff equation to the IC50 values, where:
[formula] After correcting for non-specific binding, IC50 values were determined. […] The IC50 value was determined graphically from a log-logit plot of the data. The Ki values were determined by application of the Cheng-Prusoff equation to the IC50 values, the labeled ligand concentration and the Kd of the labeled ligand. see e.g., Cheng, Y. C. and Prusoff, W. H. Biochem. Pharmacol. 22:3099 (1973).

**Q.** With CCC1C(C)c2c(ccc3[nH]c(=O)cc(C(F)(F)F)c23)N1CC(F)(F)C(F)(F)F (racemic) [Compound 179, (±)-2-Ethyl-1-methyl-3-(2,2,3,3,3-pentafluoropropyl)-9-trifluoromethyl-1,2,3,6-tetrahydro-pyrrolo[3,2-f]quinolin-7-one] as the molecule, how does the Ki read?
**A.** The Ki was < 5 nM.

**Q.** How did the Ki turn out when CC1c2c(ccc3[nH]c(=O)cc(C(F)(F)F)c23)N(CC(F)(F)C(F)(F)F)C1C (racemic) [Compound 173, (±)-1,2-Dimethyl-3-(2,2,3,3,3-pentafluoropropyl)-9-trifluoromethyl-1,2,3,6-tetrahydro-pyrrolo[3,2-f]quinolin-7-one] was run?
**A.** Its Ki is < 5 nM.

**Q.** Which Ki does the source give for Cc1cn(CC(F)(F)F)c2ccc3[nH]c(=O)cc(Cl)c3c12 [Compound 211, 9-Chloro-1-methyl-3-(2,2,2-trifluoroethyl)-3,6-dihydro-pyrrolo[3,2-f]quinolin-7-one] here?
**A.** The Ki was 5 to 10 nM.

**Q.** Cc1c(C(F)(F)F)n(CC(F)(F)F)c2ccc3[nH]c(=O)cc(C(F)(F)F)c3c12 [Compound 234, 1-Methyl-3-(2,2,2-trifluoro-ethyl)-2,9-bis-trifluoromethyl-3,6-dihydro-pyrrolo[3,2-f]-quinolin-7-one] was tested. Which Ki did it give?
**A.** The Ki was < 5 nM.

**Q.** With CCC1C(C)c2c(ccc3[nH]c(=O)cc(C(F)(F)F)c23)N1CCCC(F)(F)F (racemic) [Compound 181, (±)-2-Ethyl-1-methyl-3-(4,4,4-trifluorobutyl)-9-trifluoromethyl-1,2,3,6-tetrahydro-pyrrolo[3,2-f]quinolin-7-one] as the molecule, how does the Ki read?
**A.** Its Ki is 5 to 10 nM.

**Q.** With Cc1c(C)n(CC(O)CO)c2ccc3[nH]c(=O)cc(C(F)(F)F)c3c12 (stereo not shown) [Compound 293, 3-(2,3-dihydroxypropyl)-1,2-dimethyl-9-trifluoromethyl-3,6-dihydro-pyrrolo[3,2-f]-quinolin-7-one] as the molecule, how does the Ki read?
**A.** The Ki was > 10 nM.

**Q.** How did the Ki turn out when O=c1cc(Cl)c2c(ccc3[nH]c4c(c32)CCCC4)[nH]1 [Compound 113, 9-Chloro-1,2-tetramethylene-3,6-dihydro-pyrrolo[3,2-f]quinolin-7-one] was run?
**A.** The Ki was > 10 nM.

**Q.** With Cc1c(C)n(CCCBr)c2ccc3[nH]c(=O)cc(C(F)(F)F)c3c12 [Compound 288, 3-(3-Bromopropyl)-1,2-dimethyl-9-trifluoromethyl-3,6-dihydro-pyrrolo[3,2-f]-quinolin-7-one] as the molecule, how does the Ki read?
**A.** The Ki was < 5 nM.

**Q.** For Cc1c(-c2cccs2)n(C[C@H](O)C(F)(F)F)c2ccc3[nH]c(=O)cc(Cl)c3c12 [Compound 272, (S)-9-Chloro-1-methyl-2-thiophen-2-yl-3-(3,3,3-trifluoro-2-hydroxy-propyl)-3,6-dihydro-pyrrolo[3,2-f]quinolin-7-one], which Ki is on record?
**A.** The Ki was < 5 nM.

**Q.** With Cc1c(C)n(C[C@@H](O)CO)c2ccc3[nH]c(=O)cc(C(F)(F)F)c3c12 [Compound 296, (R)-3-(2,3-dihydroxypropyl)-1,2-dimethyl-9-trifluoromethyl-3,6-dihydro-pyrrolo[3,2-f]-quinolin-7-one] as the molecule, how does the Ki read?
**A.** Its Ki is > 10 nM.

**Q.** How did the Ki turn out when CCC1C(C)c2c(ccc3[nH]c(=O)cc(Cl)c23)N1CC(F)(F)F (racemic) [Compound 128, (±)-9-Chloro-2-ethyl-1-methyl-3-(2,2,2-trifluoro-ethyl)-1,2,3,6-tetrahydro-pyrrolo[3,2-f]quinolin-7-one] was run?
**A.** Its Ki is > 10 nM.

**Q.** With Cc1c(C)n(CCCF)c2ccc3[nH]c(=O)cc(C(F)(F)F)c3c12 [Compound 248, 1,2-Dimethyl-3-(3-fluoropropyl)-9-trifluoromethyl-3,6-dihydro-pyrrolo[3,2-f]quinolin-7-one] as the molecule, how does the Ki read?
**A.** Its Ki is < 5 nM.

**Q.** For CC1c2c(ccc3[nH]c(=O)cc(Cl)c23)N(CC(F)(F)F)C1c1cccs1 (racemic) [Compound 161, (±)-9-Chloro-1-methyl-2-(thien-2-yl)-3-(2,2,2-trifluoroethyl)-1,2,3,6-tetrahydro-pyrrolo[3,2-f]quinolin-7-one], which Ki is on record?
**A.** Its Ki is < 5 nM.

**Q.** With Cc1c(-c2nccs2)n(C[C@H](O)C(F)(F)F)c2ccc3[nH]c(=O)cc(Cl)c3c12 [Compound 276, (S)-9-Chloro-1-methyl-2-(1,3-thiazol-2-yl)-3-(3,3,3-trifluoro-2-hydroxy-propyl)-3,6-dihydro-pyrrolo[3,2-f]quinolin-7-one] as the molecule, how does the Ki read?
**A.** The Ki was > 10 nM.

**Q.** How did the Ki turn out when Cc1c(C)n(CC(O)CCl)c2ccc3[nH]c(=O)cc(C(F)(F)F)c3c12 (stereo not shown) [Compound 294, 3-(3-chloro-2-hydroxypropyl)-1,2-dimethyl-9-trifluoromethyl-3,6-dihydro-pyrrolo[3,2-f]-quinolin-7-one] was run?
**A.** The Ki was < 5 nM.

**Q.** For Cc1c(-c2ccc(F)cc2)[nH]c2ccc3[nH]c(=O)cc(Cl)c3c12 [Compound 116, 9-Chloro-2-(4-fluorophenyl)-1-methyl-3,6-dihydro-pyrrolo[3,2-f]quinolin-7-one], which Ki is on record?
**A.** Its Ki is < 5 nM.

**Q.** For Cc1c(-c2ccccc2)n(CCC(F)(F)F)c2ccc3[nH]c(=O)cc(Cl)c3c12 [Compound 217, 9-Chloro-1-methyl-2-phenyl-3-(3,3,3-trifluoropropyl)-3,6-dihydropyrrolo[3,2-f]-quinolin-7-one], which Ki is on record?
**A.** The Ki was < 5 nM.

**Q.** How did the Ki turn out when CCC1C(C)c2c(ccc3[nH]c(=O)cc(Cl)c23)N1CCC(F)(F)F (racemic) [Compound 170, (±)-9-Chloro-2-ethyl-1-methyl-3-(3,3,3-trifluoropropyl)-1,2,3,6-tetrahydro-pyrrolo[3,2-f]quinolin-7-one] was run?
**A.** The Ki was < 5 nM.

**Q.** How did the Ki turn out when CCC1c2c(ccc3[nH]c(=O)cc(Cl)c23)N(CC(F)(F)F)C1c1cccs1 (racemic) [Compound 164, (±)-9-Chloro-1-ethyl-2-(thien-2-yl)-3-(2,2,2-trifluoroethyl)-1,2,3,6-tetrahydro-pyrrolo[3,2-f]-quinolin-7-one] was run?
**A.** Its Ki is < 5 nM.

**Q.** Which Ki does the source give for Cc1c(-c2ccc(F)cc2F)n(CC(F)(F)F)c2ccc3[nH]c(=O)cc(Cl)c3c12 [Compound 200, 9-Chloro-2-(2,4-difluorophenyl)-1-methyl-3-(2,2,2-trifluoroethyl)-3,6-dihydro-pyrrolo[3,2-f]-quinolin-7-one] here?
**A.** The Ki was < 5 nM.

**Q.** CCC1C(C)c2c(ccc3[nH]c(=O)cc(Cl)c23)N1CC (racemic) [Compound 166, (±)-9-Chloro-2,3-diethyl-1-methyl-1,2,3,6-tetrahydro-pyrrolo[3,2-f]quinolin-7-one] was tested. Which Ki did it give?
**A.** Its Ki is > 10 nM.

**Q.** COc1ccc(C2C(C)c3c(ccc4[nH]c(=O)cc(Cl)c34)N2CC(F)(F)F)cc1 (racemic) [Compound 148, (±)-9-Chloro-2-(4-methoxy-phenyl)-1-methyl-3-(2,2,2-trifluoroethyl)-1,2,3,6-tetrahydro-pyrrolo[3,2-f]quinolin-7-one] was tested. Which Ki did it give?
**A.** Its Ki is 5 to 10 nM.

**Q.** For CC1c2c(ccc3[nH]c(=O)cc(Cl)c23)N(CC(F)(F)F)C1c1cccc(Br)c1 (racemic) [Compound 153, (±)-2-(3-Bromophenyl)-9-chloro-1-methyl-3-(2,2,2-trifluoroethyl)-1,2,3,6-tetrahydro-pyrrolo[3,2-f]quinolin-7-one], which Ki is on record?
**A.** Its Ki is > 10 nM.

**Q.** How did the Ki turn out when CC1c2c(ccc3[nH]c(=O)cc(Cl)c23)N(CC(F)(F)F)C1c1cccc(Cl)c1 (racemic) [Compound 146, (±)-9-Chloro-2-(3-chlorophenyl)-1-methyl-3-(2,2,2-trifluoroethyl)-1,2,3,6-tetrahydro-pyrrolo[3,2-f]quinolin-7-one] was run?
**A.** Its Ki is > 10 nM.

**Q.** Cc1c(-c2cccc([N+](=O)[O-])c2)n(CC(F)(F)F)c2ccc3[nH]c(=O)cc(Cl)c3c12 [Compound 205, 9-Chloro-1-methyl-2-(3-nitrophenyl)-3-(2,2,2-trifluoroethyl)-3,6-dihydro-pyrrolo[3,2-f]quinolin-7-one] was tested. Which Ki did it give?
**A.** Its Ki is 5 to 10 nM.
